Source: patent US12077503B2, “Substituted cyclic amides and their use as herbicides” (FMC CORPORATION, priority 2015, dated 2024)

Experiments:
Assay type in all cases: in vivo
[1] = test system: Galium (catchweed bedstraw, Galium aparine); assay: Test A postemergence; details: Galium, post-emergence, 240 h
Outline: (§1)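 Treatment is preemergence as a directed soil spray after planting, or postemergence at the one- to two-leaf stage, with test chemical in a non-phytotoxic solvent mixture plus surfactant. Plants stay in the greenhouse about 10 d before visual injury scoring on a 0 to 100 scale versus untreated controls.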

[2] = test system: giant foxtail (Setaria faberii); assay: Test A postemergence; details: Setaria faberi, post-emergence, 240 h
Outline: as §1

[3] = test system: pigweed (Amaranthus retroflexus); assay: Test A postemergence; details: Amaranthus retroflexus, post-emergence, 240 h
Outline: as §1

[4] = test system: ragweed (common ragweed, Ambrosia elatior); assay: Test A postemergence; details: Ambrosia artemisiifolia, post-emergence, 240 h
Outline: as §1

[5] = test system: blackgrass (Alopecurus myosuroides); assay: Test A postemergence; details: Alopecurus myosuroides, post-emergence, 240 h
Outline: as §1

[6] = test system: wheat (Triticum aestivum); assay: Test A postemergence; details: Triticum aestivum, post-emergence, 240 h
Outline: as §1

[7] = test system: ryegrass, Italian (Italian ryegrass, Lolium multiflorum); assay: Test A postemergence; details: Lolium multiflorum, post-emergence, 240 h
Outline: as §1

[8] = test system: barnyardgrass (Echinochloa crus-galli); assay: Test A postemergence; details: Echinochloa crus-galli, post-emergence, 240 h
Outline: as §1

corn (Zea mays) = assay: Test A postemergence; details: Zea mays, post-emergence, 240 h
Outline: as §1

Kochia (Kochia scoparia) [9] = assay: Test A postemergence; details: Bassia scoparia, post-emergence, 240 h
Outline: as §1

[10] = test system: giant foxtail (Setaria faberii); assay: Test A preemergence; details: Setaria faberi, pre-emergence, 240 h, 0 to 100 scale where 0 is no effect and 100 is complete control, read-out: Foxtail, Giant plant response rating
Outline: as §1

[11] = test system: pigweed (Amaranthus retroflexus); assay: Test A preemergence; details: Amaranthus retroflexus, pre-emergence, 240 h, 0 to 100 scale where 0 is no effect and 100 is complete control, read-out: Pigweed plant response rating
[12] = test system: ragweed (common ragweed, Ambrosia elatior); assay: Test A preemergence; details: Ambrosia artemisiifolia, pre-emergence, 240 h, 0 to 100 scale where 0 is no effect and 100 is complete control, read-out: Ragweed plant response rating
Outline: as §1

[13] = test system: ryegrass, Italian (Italian ryegrass, Lolium multiflorum); assay: Test A preemergence; details: Lolium multiflorum, pre-emergence, 240 h, 0 to 100 scale where 0 is no effect and 100 is complete control, read-out: Ryegrass, Italian plant response rating
Outline: as §1

[14] = test system: barnyardgrass (Echinochloa crus-galli); assay: Test A preemergence; details: Echinochloa crus-galli, pre-emergence, 240 h, 0 to 100 scale where 0 is no effect and 100 is complete control, read-out: Barnyardgrass plant response rating
Outline: as §1

Kochia (Kochia scoparia) [15] = assay: Test A preemergence; details: Bassia scoparia, pre-emergence, 240 h, 0 to 100 scale where 0 is no effect and 100 is complete control, read-out: Kochia plant response rating
Outline: as §1

[16] = test system: barnyardgrass (Echinochloa crus-galli); assay: Test B flooded paddy test; details: Echinochloa crus-galli, 250 g ai/ha, Flood; 0 to 100 scale where 0 is no effect and 100 is complete control; read-out: Barnyardgrass plant response rating
Outline: (§2)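 Compound goes directly into floodwater once pots are flooded 3 cm above soil, targeting plants at two leaves; the water depth is then held for the test duration. Plants sit 13–15 d in a greenhouse and are rated visually, 100 denoting complete control.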

[17] = test system: sedge, umbrella (small-flower umbrella sedge, Cyperus difformis); assay: Test B flooded paddy test; details: Cyperus difformis, 250 g ai/ha, Flood; 0 to 100 scale where 0 is no effect and 100 is complete control; read-out: Sedge, Umbrella plant response rating
Outline: as §2

rice (Oryra sativa) = assay: Test B flooded paddy test; details: Oryza sativa, 250 g ai/ha, Flood; 0 to 100 scale where 0 is no effect and 100 is complete control; read-out: Rice plant response rating
Outline: as §2

[18] = test system: ducksalad (Heteranthera limosa); assay: Test B flooded paddy test; details: Heteranthera limosa, 250 g ai/ha, Flood; 0 to 100 scale where 0 is no effect and 100 is complete control; read-out: Ducksalad plant response rating
Outline: as §2

[19] = 125 g ai/ha, preemergence, approx. 10 d

CN1C[C@H](c2ccc3ncccc3c2)[C@@H](C(=O)Nc2cccc(F)c2F)C1=O [Compound 1167]
20%: pest or weed control at 125 g/ha ([1]; 125 g ai/ha, postemergence, visual injury vs untreated controls after approx. 10 d, 0 = no effect, 100 = complete control, read-out: Galium plant response rating (0 to 100 scale))
0%: pest or weed control at 31 g/ha ([1]; Postemergence, 31 g ai/ha, visual injury after approx. 10 d, 0 to 100 scale, 0 no effect, 100 complete control, read-out: Plant response rating, Galium) | pest or weed control at 31 g/ha ([2]; Postemergence, 31 g ai/ha, visual injury after approx. 10 d, 0 to 100 scale, 0 no effect, 100 complete control, read-out: Plant response rating, Foxtail, Giant) | pest or weed control at 125 g/ha ([3]; 125 g ai/ha, postemergence, visual injury vs untreated controls after approx. 10 d, 0 = no effect, 100 = complete control, read-out: Pigweed plant response rating (0 to 100 scale)) | pest or weed control at 31 g/ha ([3]; Postemergence, 31 g ai/ha, visual injury after approx. 10 d, 0 to 100 scale, 0 no effect, 100 complete control, read-out: Plant response rating, Pigweed) | pest or weed control at 125 g/ha ([4]; 125 g ai/ha, postemergence, visual injury vs untreated controls after approx. 10 d, 0 = no effect, 100 = complete control, read-out: Ragweed plant response rating (0 to 100 scale)) | pest or weed control at 31 g/ha ([4]; Postemergence, 31 g ai/ha, visual injury after approx. 10 d, 0 to 100 scale, 0 no effect, 100 complete control, read-out: Plant response rating, Ragweed) | pest or weed control at 125 g/ha ([5]; 125 g ai/ha, postemergence, visual injury vs untreated controls after approx. 10 d, 0 = no effect, 100 = complete control, read-out: Blackgrass plant response rating (0 to 100 scale)) | pest or weed control at 31 g/ha ([5]; Postemergence, 31 g ai/ha, visual injury after approx. 10 d, 0 to 100 scale, 0 no effect, 100 complete control, read-out: Plant response rating, Blackgrass) | plant injury at 31 g/ha ([6]; Postemergence, 31 g ai/ha, visual injury after approx. 10 d, 0 to 100 scale, 0 no effect, 100 complete control, read-out: Plant response rating, Wheat) | pest or weed control at 125 g/ha ([7]; 125 g ai/ha, postemergence, visual injury vs untreated controls after approx. 10 d, 0 = no effect, 100 = complete control, read-out: Ryegrass, Italian plant response rating (0 to 100 scale)) | pest or weed control at 31 g/ha ([7]; Postemergence, 31 g ai/ha, visual injury after approx. 10 d, 0 to 100 scale, 0 no effect, 100 complete control, read-out: Plant response rating, Ryegrass, Italian) | pest or weed control at 31 g/ha ([8]; Postemergence, 31 g ai/ha, visual injury after approx. 10 d, 0 to 100 scale, 0 no effect, 100 complete control, read-out: Plant response rating, Barnyardgrass) | plant injury at 125 g/ha (corn (Zea mays); 125 g ai/ha, postemergence, visual injury vs untreated controls after approx. 10 d, 0 = no effect, 100 = complete control, read-out: Corn plant response rating (0 to 100 scale)) | Corn plant response rating (crop injury, 0 = no effect, 100 = complete kill) at 31 g/ha (corn (Zea mays); Postemergence, 31 g ai/ha, visual injury after approx. 10 d, 0 to 100 scale, 0 no effect, 100 complete control) | pest or weed control at 125 g/ha (Kochia (Kochia scoparia) [9]; 125 g ai/ha, postemergence, visual injury vs untreated controls after approx. 10 d, 0 = no effect, 100 = complete control, read-out: Kochia plant response rating (0 to 100 scale)) | pest or weed control at 31 g/ha (Kochia (Kochia scoparia) [9]; Postemergence, 31 g ai/ha, visual injury after approx. 10 d, 0 to 100 scale, 0 no effect, 100 complete control, read-out: Plant response rating, Kochia) | pest or weed control at 31 g/ha ([10]; 31 g ai/ha, Preemergence) | pest or weed control at 31 g/ha ([11]; 31 g ai/ha, Preemergence) | pest or weed control at 125 g/ha [11, 19] | pest or weed control at 31 g/ha ([12]; 31 g ai/ha, Preemergence) | pest or weed control at 125 g/ha [12, 19] | pest or weed control at 31 g/ha ([13]; 31 g ai/ha, Preemergence) | pest or weed control at 125 g/ha [13, 19] | pest or weed control at 31 g/ha ([14]; 31 g ai/ha, Preemergence) | pest or weed control at 125 g/ha [14, 19] | pest or weed control at 31 g/ha (Kochia (Kochia scoparia) [15]; 31 g ai/ha, Preemergence) | pest or weed control at 125 g/ha (Kochia (Kochia scoparia) [15]; [19]) | pest or weed control at 250 g/ha [16] | pest or weed control at 250 g/ha [17] | pest or weed control at 250 g/ha (rice (Oryra sativa)) | pest or weed control at 250 g/ha [18]
30%: pest or weed control at 125 g/ha ([2]; 125 g ai/ha, postemergence, visual injury vs untreated controls after approx. 10 d, 0 = no effect, 100 = complete control, read-out: Foxtail, Giant plant response rating (0 to 100 scale))
50%: plant injury at 125 g/ha ([6]; 125 g ai/ha, postemergence, visual injury vs untreated controls after approx. 10 d, 0 = no effect, 100 = complete control, read-out: Wheat plant response rating (0 to 100 scale)) | pest or weed control at 125 g/ha ([8]; 125 g ai/ha, postemergence, visual injury vs untreated controls after approx. 10 d, 0 = no effect, 100 = complete control, read-out: Barnyardgrass plant response rating (0 to 100 scale)) | pest or weed control at 125 g/ha [10, 19]
